In the assay the target is T1, Ceramide glucosyltransferase (Homo sapiens, UniProt Q16739).
T1 sequence (Q16739 whole entry): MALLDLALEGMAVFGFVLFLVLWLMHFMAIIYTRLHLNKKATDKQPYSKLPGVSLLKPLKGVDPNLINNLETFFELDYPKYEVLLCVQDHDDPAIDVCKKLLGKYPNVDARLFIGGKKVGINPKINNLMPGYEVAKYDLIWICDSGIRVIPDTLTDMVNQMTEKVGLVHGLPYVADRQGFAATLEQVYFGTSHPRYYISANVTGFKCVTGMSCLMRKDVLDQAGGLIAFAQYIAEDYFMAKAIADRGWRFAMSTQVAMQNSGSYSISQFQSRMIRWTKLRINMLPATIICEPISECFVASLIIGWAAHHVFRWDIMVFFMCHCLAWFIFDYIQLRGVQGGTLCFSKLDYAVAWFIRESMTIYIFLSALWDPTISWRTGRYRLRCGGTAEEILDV
The experiment in a line: UDP-Glo Glucosylceramide Synthase Biochemical Assay. The protocol: Using Promega's UDP-Glo™ Glycosyltransferase assay kit (Promega Corporation, Madison, WI, USA (Promega)), GCS activity was indirectly measured by detecting the amount of UDP produced. An aliquot of GCS enzyme (1.5 μg crude golgi preparation, total protein) and titrated test compound were aliquoted to each well and incubated for 30 minutes at room temperature. Substrate mixture was prepared by mixing C6 ceramide (Avanti Polar Lipids, Alabaster, AL USA (Avanti)) (micelles prepared at 0.6 mM in 0.6 mM DOPC) and UDP-glucose (20 μ.M; Promega), at concentrations equivalent to 2×Km, in assay buffer (25 mM HEPES (pH 7.5), 50 mM KCl, 5 mM MgCl2). An equivalent volume of substrate mixture was then added to each well. Following a 20 h incubation at room temperature to allow for GCS turnover of substrate, an equal volume of UDP detection reagent (Promega) was added to each well and incubated for an additional 75 minutes at room temperature to simultaneously convert the accumulated UDP product into ATP and generate light in a luciferase reaction.

The structures appear in SMILES notation.

One may read the EC50 as the concentration at which the effect is half-maximal. Low values mean a more potent agent, high ones a less potent agent. With `CCCOc1ccccc1-c1cccc2cc(C(=O)Nc3cccnc3)oc12` [US20230391758, Compound 10], the 50% effective concentration (EC50) worked out at 1.8 nM.

The values above are taken from BindingDB's records for patent US20230391758 (Merck Sharp & Dohme, 2023).
